Measured values published in patent US5808109A, “Compounds that inhibit complement and/or suppress immune activity” (T Cell Sciences, Inc., priority 1995, dated 1998).
Structures can show the parent of a compound that is named as a salt. Where two headings read alike, the source gives them in different places.

How the values were obtained:
human complement = test: Inhibition of complement-mediated hemolysis, human serum, sensitized sheep erythrocytes; format: biochemical
Experimental: The ability to inhibit complement was also tested by assaying for inhibition of complement-mediated red cell lysis (hemolysis). The inhibition of hemolysis was determined as a function of compound concentration. The compounds to be tested were diluted in 0.1M Hepes buffer (0.15N NaCl, pH 7.4), and 50 μl were added to each well of a V-bottom microtiter plate. Human serum, used as the complement source, was diluted 1 to 500 in Hepes buffer, and 50 μl were added to each well. Next, commercially available sheep erythrocytes with anti-sheep antibody (Diamedix Cat. No. 789-001) were used as received and added at 100 μl/well to initiate the complement pathway leading to hemolysis. The plate was incubated for 60 minutes at 37° C. and then centrifuged at 500×g for 10 minutes. The supernatants were removed and placed in a flat-bottom microtiter plate. The extent of hemolysis was measured as a function of the sample absorbance at 410 nm. The maximal absorbance (corresponding to maximal hemolysis), Amax, was obtained from the absorbance value of an erythrocyte sample containing only human serum, AS, less the absorbance of a sample containing only the red cells, A0. Thus, Amax =AS -A0. The difference between the absorbance of an erythrocyte sample containing both human serum and inhibitive compound, and the absorbance of a cell sample containing inhibitive compound only, was defined as Asample. The inhibition, IH, was expressed as the fraction (Amax -Asample)/Amax, and IH50 was defined as the concentration of inhibitive compound required to produce a value of IH=1/2.
The 4 substituted spirobenzofuran compounds of example 7 and the disubstituted spirobenzofuran compounds of example 8 were tested for their capacity to inhibit complement-mediated lysis of sheep red blood cells (SRBC) as described in Section 6.6.2 supra with the modification that the human serum used as the complement source was diluted to 1 to 100 in Hepes buffer, instead of […]. The results of the hemolysis assays are shown in FIG. 8 and Tables XI and XII.

C3a production = test: Inhibition of C3a production in human serum (aggregated IgG, RIA); format: biochemical; conditions: human serum, concentration inhibiting C3a production 50% relative to control
Experimental: (§1) The ability to inhibit complement was tested by assaying for specific inhibition of C3a and C5a production. For all experiments, a single human serum pool, to be used as a source of complement, was aliquoted and stored frozen at -70° C. Human IgG was heat-aggregated, aliquoted, and stored frozen at -70° C. For each experiment, serum aliquots were equilibrated at 37° C. with varying concentrations of the compounds tested. The classical complement pathway was initiated by the addition of aggregated human IgG. Control samples containing no IgG were always included. After a fixed reaction time of 10 minutes (determined in an earlier time-course study to provide a convenient time interval during which the production of C5a or C3a is nearly complete, i.e., greater than 90%), the levels of the released complement peptides (C5a or C3a) were determined by radioimmunoassay using commercially available radioimmunoassay (RIA) kits (C5a RIA, UpJohn Cat. No. 3250-02; C3a RIA, UpJohn Cat. No. 3245-01; C5a RIA, Amersham Cat. No. RPA.520; C3a RIA, Amersham RPA.518).
(§2) Since a competitive immunoassay was used, complement peptide (C5a and C3a) concentrations varied inversely with the counts. The Counts Bound (CB) for a sample was defined as the total counts (in counts per minute, cpm) measured in the pellet minus the counts measured in a nonspecific binding (NSB) control. The NSB control was a sample containing only tracer peptide (^125 I-labelled) and second precipitating antiserum; it contained no C5a- or C3a-specific antiserum.
(§3) The y-axis in FIG. 2 represents the fraction inhibition. The fraction inhibition is equal to the Counts Bound (CB) for a "sample," less the CB in the "sample with no added compound," divided by the CB for the "no IgG control" less the CB in the "sample with no added compound." [formula]
(§4) FIG. 2 is representative of the data plots obtained from the assays described above.

C5a production = test: Inhibition of C5a production in human serum (aggregated IgG, RIA); format: biochemical; conditions: concentration inhibiting C5a production 50% relative to control
Experimental: as §1, §2, §3, §4

[1] = system: human peripheral blood lymphocytes (PBL); test: Inhibition of proliferation of peripheral blood lymphocytes, 3H-thymidine incorporation; format: cell-based; conditions: Lymphocyte, Table IX, 72 h
Experimental: The proliferation of human peripheral blood lymphocytes (PBL) in response to phytohemagglutinin (PHA, Well-come) or anti-CD3 monoclonal antibody (OKT-3, Ortho) was assessed by the incorporation of ^3 H-thymidine. Compound 11a was diluted in culture media to the desired concentrations, human PBL were added to a final concentration of 10^6 cells/ml, and then either PHA (Wellcome) or anti-CD3 (OKT3, Ortho) antibody (final concentration, […]) was added to initiate proliferation. The final volume per sample was 100 μl. The cells were incubated for 72 hours after stimulation, pulsed with 1 μCi ^3 H-thymidine per sample for 4 hours, harvested, and counted in a scintillation counter. […] Because cell viability was unaffected by the presence of 11a (see supra), the inhibition apparently was not due to cytotoxic effects.

[2] = system: alternative complement pathway; test: Inhibition of alternative pathway mediated hemolysis, rabbit erythrocytes, human serum; format: biochemical; conditions: Table XIV, human serum 1 in 24, read-out: Alternative pathway AH50
Experimental: The capacity of the substituted dihydrobenzofurans to inhibit the alternative complement pathway was assessed using the modified method of Platts-Mills and Ishizaka, 1974, J. Immunol., 113:348-358. Essentially, rabbit erythrocytes were lysed using human serum as complement in gelatin veronal buffer (GVB, Sigma, St. Louis, Mo.) with added EGTA (ethylene glycol-bis[β-aminoethyl ether]N,N,N^1,N^1 -tetraacetic acid) and Mg^2+ to 8 mM and 2 mM, respectively. Rabbit erythrocytes (4.5×10^6 cells/ml), human serum (1 in 24 dilution), and the compounds to be tested were incubated one hour at 37° C. in a V-bottom microtiter plate, cells pelleted by centrifugation, the supernatants transferred to a flat-bottom microtiter plate, and the absorbance at 410 nm determined. Samples were paired with identical controls lacking human serum (complement-independent lysis). Both samples and controls were run in triplicate. Control values were subtracted from sample values and the fractional inhibition was determined relative to the uninhibited (no added compound) sample. Results are reported as the concentration of compound yielding fifty per cent (50%) inhibition, AH50. The AH50 values for several of the compounds are included along with the results of other in vitro assays in Table XIV.

factor I = molecular target: T1, factor I (Homo sapiens, UniProt P05156); test: Inhibition of C3b proteolysis by factor I (SDS-PAGE densitometry); format: biochemical; conditions: sCR1 8 nM as cofactor, C3b 1.2 μM, factor I 0.1 μM, 60 min 37° C.; read-out: C3b cleavage by Factor I, concentration yielding 50% inhibition
T1 construct: purchased Cytotech, San Diego, Calif
T1 sequence (P05156 340-583 limits assumed): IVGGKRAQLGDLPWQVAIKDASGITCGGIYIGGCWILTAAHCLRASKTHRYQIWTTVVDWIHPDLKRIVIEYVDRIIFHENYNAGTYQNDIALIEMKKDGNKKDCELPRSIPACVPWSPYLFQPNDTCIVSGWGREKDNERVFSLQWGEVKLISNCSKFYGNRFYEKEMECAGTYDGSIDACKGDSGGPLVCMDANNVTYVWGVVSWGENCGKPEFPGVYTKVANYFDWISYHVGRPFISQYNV
Excerpt: The reactions were stopped by the addition of reducing SDS-PAGE sample buffer (Laemmli, 1970, Nature, 227:680-685) subjected to electrophoresis on 4-20% polyacrylamide gradient gels, visualized with Coomassie Blue stain, and quantitated by densitometry. Controls lacking factor I and controls with factor I but lacking test compounds were included. Results are reported as the concentration of test compound which inhibited approximately fifty percent (50%) of the C3b a-chain degradation, IC50.

[3] = Table VII, human serum, read-out: IHO50
[4] = Table XII, human serum diluted 1 to 100, read-out: IH50 Mean
[5] = PHA stimulation, read-out: IP50 PHA-stimulated PBL
[6] = anti-CD3 (OKT-3) stimulation, read-out: IP50 OKT-3-stimulated PBL
[7] = Table XI, human serum diluted 1 to 100, read-out: IH50 Mean

## O=C(O)c1ccc(O)c2c1OC1(CCCCC1)C2 [Compound 14a]
Human complement; [3]
  IC50: 3 mM

## CCOc1cc(C(=O)O)cc2c1CC1(CCCCC1)O2 [Compound 44b, 6-CARBOXYLATE-4-ETHOXY-SPIRO [BENZOFURAN-2(3H)-CYCLOHEXANE] SODIUM SALT]
Human complement; [4]
  IC50: 0.58 mM

## COc1cc(C(=O)O)cc2c1CC1(CCCCC1)O2 [Compound 30a]
Human complement; [3]
  IC50: 0.53 mM

## O=C(O)c1cc(Oc2ccccc2)c2c(c1)OC1(CCCCC1)C2 [Compound 55c, 6-CARBOXYL-4-PHENOXYSPIRO[BENZOFURAN-2(3H)-CYCLOHEXANE]]
Human complement
  effectiveness in inhibiting complement-mediated hemolysis compared with K76COOH: more effective
Human complement; [4]
  IC50: 0.28 mM

## O=C(O)c1cc(OCc2ccccc2)c2c(c1)OC1(CCCCC1)C2 [Compound 55a, 4-BENZYLOXY-6-CARBOXYLSPIRO[BENZOFURAN-2(3H)-CYCLOHEXANE]]
Human complement; [4]
  IC50: 2.53 mM

## Nc1ccc(Oc2cc(C(=O)O)cc3c2CC2(CCCCC2)O3)cc1 [Compound 55h, 4p-aminophenoxy-carboxyspiro[benzofuran2(3H)-cyclohexane]
Human complement
  effectiveness in inhibiting complement-mediated hemolysis compared with K76COOH: more effective
Human complement; [4]
  IC50: 0.32 mM

## O=C(O)c1ccc2c(c1)OC1(CCCCC1)C2 [Compound 55g, 6-CARBOXYLSPIRO[BENZOFURAN-2(3H)-CYCLOHEXANE]]
Human complement; [4]
  IC50: 2.32 mM

## O=C(O)c1cc(OCCO)c2c(c1)OC1(CCCCC1)C2 [Compound 55d, 6-CARBOXYL-4-(2'-HYDROXYETHYLOXYSPIRO[BENZOFURAN-2(3H)-CYCLOHEXANE]]
Human complement; [4]
  IC50: > 2.8 mM

## COc1ccc(C=O)c(O)c1CC1=CCCCC1 [Compound 12b, 3-(1'-CYCLOHEXENYL)METHYL-2-HYDROXY-4-METHOXYBENZALDEHYDE]
C3a production
  IC50: 18 mM
C5a production
  IC50: 9 mM

## O=C(O)c1ccc(Oc2cc(C(=O)O)cc3c2CC2(CCCCC2)O3)cc1 [Compound 55i, 6-CARBOXYL-4-P-CARBOXYLPHENOXYSPIRO[BENZOFURAN-2(3H)-CYCLOHEXANE]]
Human complement; [4]
  IC50: 1.45 mM

## COc1cc(C(=O)O)cc(O)c1CC1=CCCCC1 [Compound 15a]
Human complement; [3]
  IC50: 0.82 mM
[1]; [5]
  IC50: 0.7 mM
[1]; [6]
  IC50: 0.4 mM

## COc1cc(C(=O)O)c(C(=O)O)c2c1CC1(CCCCC1)O2 [Compound 66, 6,7-DICARBOXYL-4-METHOXYSPIRO [BENZOFURAN-2(3H)-CYCLOHEXANE]]
Human complement; [7]
  IC50: 0.8 mM

## CC1=CCC(C2(C)Cc3c(O)ccc(C(=O)O)c3O2)CC1 (single isomer, unassigned; (+)) [(+)-23a]
C3a production
  IC50: > 14 mM
Human complement; [3]
  IC50: 2.1 mM
C5a production
  IC50: > 14 mM

## COc1cc(C=O)c(C(=O)O)c2c1CC1(CCCCC1)O2 [Compound 62, 7-CARBOXY-6-FORMYL-4-METHOXY PIRO[BENXOFURAN-2 (DH)-CYCLOHEXANE]
Human complement; [7]
  IC50: 1.67 mM

## CCCCOc1cc(C(=O)O)cc2c1CC1(CCCCC1)O2 [Compound 55b, 4-N-BUTYLOXY-6-CARBOXYLSPIRO[BENZOFURAN-2(3H)-CYCLOHEXANE]]
Human complement; [4]
  IC50: 0.43 mM

## O=C(O)c1cc(O)c2c(c1)OC1(CCCCC1)C2 [Compound 31a]
Human complement; [3]
  IC50: 1.45 mM
Human complement; [4]
  IC50: 1.45 mM

## COc1ccc(C(=O)O)c2c1CC(C)(C1CC=C(C)CC1)O2 (single isomer, unassigned; (+)) [(+)-20a]
C3a production
  IC50: > 14 mM
Human complement; [3]
  IC50: 0.68 mM
C5a production
  IC50: 8 mM
[1]; [5]
  IC50: 2.1 mM
[1]; [6]
  IC50: 1.7 mM

## CC1CCC2C(C)(C)C(O)C(O)CC2(C)C12Cc1c(O)cc(C(=O)O)c(C=O)c1O2 (stereo not drawn) [K76COOH, reference compound]
Human complement; [7]
  IC50: 0.57 mM
Human complement; [4]
  IC50: 0.57 mM
Human complement; Table XIV, read-out: Classical pathway IH50
  IC50: 0.57 mM
[2]
  IC50: 0.85 mM
Factor I
  IC50: 0.11 mM

## COc1ccc(C(=O)O)c(O)c1CC1=CCCCC1 [Compound 12a, 3-(1'-CYCLOHEXENYL)METHYL-2-HYDROXY-4-METHOXYBENZOIC ACID]
C3a production
  IC50: 13 mM
Human complement; [3]
  IC50: 2.1 mM
C5a production
  IC50: 8 mM

## COc1ccc(C(=O)O)c2c1CC(C)(C1CC=C(C)CC1)O2 (single isomer, unassigned; (-)) [(-)-20a]
C3a production
  IC50: 11 mM
Human complement; [3]
  IC50: 0.38 mM
C5a production
  IC50: 6 mM

## O=C(O)c1cc(Oc2ccc([N+](=O)[O-])cc2)c2c(c1)OC1(CCCCC1)C2 [Compound 55e, 6-CARBOXYL-4-P-NITROPHENOXYSPIRO [BENZOFURAN-2(3H)-CYCLOHEXANE]]
Human complement
  effectiveness in inhibiting complement-mediated hemolysis compared with K76COOH: more effective
Human complement; [4]
  IC50: 0.305 mM

## CC1=CCC(C2(C)Cc3c(O)ccc(C(=O)O)c3O2)CC1 (single isomer, unassigned; (-)) [(-)-23a]
Human complement; [3]
  IC50: 2.4 mM
[1]; [5]
  IC50: 2.8 mM
[1]; [6]
  IC50: 2 mM
